According to patent US9790198B2, “Substituted benzothiophenyl derivatives as GPR40 agonists for the treatment of type II diabetes” (Janssen Pharmaceutica NV, priority 2014, dated 2017):

Target: human GPR40 (Homo sapiens (Human), UniProt O14842)
Assay: GPR40 Calcium Flux Assay
Format: cell-based
Settings: transfected HEK293 cells stably expressing human GPR40, mean data, read-out: hGPR40 Ca^2+ Assay EC50
Procedure: Compounds were tested in a calcium flux assay using transfected HEK293 cells stably expressing either human GPR40 or rat GPR40. Human GPR40 expressing cells were cultured in DMEM-High Glucose media supplemented with 10% fetal bovine serum, 1×L-Glutamine, 1× Penicillin/Streptomycin and 500 μg/mL G418. Rat GPR40 expressing cells were cultured in DMEM-High Glucose media supplemented with 10% fetal bovine serum and 1 μg/mL puromycin. Cells were plated into poly-D-lysine coated 384-well plates and cultured overnight in a 37° C. humidified tissue culture incubator under 5% CO2/90% O2 atmosphere. On the day of the experiment, the culture media was replaced with assay buffer (HBSS, 20 mM HEPES, 0.1% BSA) and the cells incubated at 37° C. for 1 h. Calcium-sensitive fluorescent dye (Fluo 8 No-Wash Calcium Dye, ABD Bioquest) was then added and the cells incubated for another 30 min at 37° C. followed by 15 min at room temperature while protected from the light. The cell plate and a plate of diluted compounds of Formula (I) were loaded into a fluorescent plate reader that added compounds onto the cells while measuring the fluorescence intensity of each well. The plate reader recorded fluorescence intensity at 1 second intervals for 8 min and provided the data for analysis in an Excel format. EC50 values were calculated using Prism (GraphPad) software.

Chain of human GPR40 (O14842 whole entry): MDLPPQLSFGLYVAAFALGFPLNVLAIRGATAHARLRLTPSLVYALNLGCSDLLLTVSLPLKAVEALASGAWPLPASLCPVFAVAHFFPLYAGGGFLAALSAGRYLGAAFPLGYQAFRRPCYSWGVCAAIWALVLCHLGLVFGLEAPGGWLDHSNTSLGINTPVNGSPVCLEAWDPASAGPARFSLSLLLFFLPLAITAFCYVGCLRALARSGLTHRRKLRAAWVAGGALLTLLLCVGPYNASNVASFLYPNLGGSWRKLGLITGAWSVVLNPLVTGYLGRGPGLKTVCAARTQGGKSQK

EC50: 14 nM
Compound: Cc1ccccc1-c1csc2ccc(COc3ccc([C@]4(CC(=O)O)C[C@@H](O)C4)cc3)cc12 [Cpd 31, 2-((1r,3r)-3-Hydroxy-1-(4-((3-(2-methylphenyl)benzo[b]thiophen-5-yl)methoxy)phenyl)cyclobutyl)acetic acid]
